According to ChEMBL document CHEMBL3045835, “Comparative study of conventional and microwave-assisted synthesis of some Schiff bases and their potential as antimicrobial agents” (2012):
Converted amounts (≈) assume the structure as drawn.

Experiments:
Assay type in all cases: functional
[1] = system: Pseudomonas aeruginosa; assay: Antibacterial activity against Pseudomonas aeruginosa MTCC 424 after 24 hr by broth dilution method; conditions: MTCC 424, 24 h
[2] = system: Micrococcus luteus; assay: Antibacterial activity against Micrococcus luteus MTCC 1538 after 24 hr by broth dilution method; conditions: MTCC 1538, 24 h
[3] = system: Bacillus pumilus; assay: Antibacterial activity against Bacillus pumilus MTCC 1456 after 24 hr by broth dilution method; conditions: MTCC 1456, 24 h
[4] = system: Staphylococcus aureus; assay: Antibacterial activity against Staphylococcus aureus MTCC 1430 after 24 hr by broth dilution method; conditions: MTCC 1430, 24 h
[5] = system: Bacillus subtilis; assay: Antibacterial activity against Bacillus subtilis MTCC 441 after 24 hr by broth dilution method; conditions: MTCC 441, 24 h
[6] = system: Pseudomonas fluorescens; assay: Antibacterial activity against Pseudomonas fluorescens MTCC 2421 at 1000 ug/ml after 18 hr by cup-plate method; conditions: MTCC 2421, 18 h, read-out: DIZ
[7] = system: Pseudomonas fluorescens; assay: Antibacterial activity against Pseudomonas fluorescens MTCC 2421 at 1500 ug/ml after 18 hr by cup-plate method; conditions: MTCC 2421, 18 h, read-out: DIZ
[8] = system: Pseudomonas fluorescens; assay: Antibacterial activity against Pseudomonas fluorescens MTCC 2421 at 500 ug/ml after 18 hr by cup-plate method; conditions: MTCC 2421, 18 h, read-out: DIZ
[9] = system: Pseudomonas fluorescens; assay: Antibacterial activity against Pseudomonas fluorescens MTCC 2421 at 200 ug/ml after 18 hr by cup-plate method; conditions: MTCC 2421, 18 h, read-out: DIZ
[10] = system: Penicillium chrysogenum; assay: Antifungal activity against Penicillium chrysogenum MTCC 161 at 1500 ug/ml after 18 hr by cup-plate method; conditions: MTCC 161, 18 h, read-out: DIZ
[11] = system: Penicillium chrysogenum; assay: Antifungal activity against Penicillium chrysogenum MTCC 161 at 1000 ug/ml after 18 hr by cup-plate method; conditions: MTCC 161, 18 h, read-out: DIZ
[12] = system: Penicillium chrysogenum; assay: Antifungal activity against Penicillium chrysogenum MTCC 161 at 500 ug/ml after 18 hr by cup-plate method; conditions: MTCC 161, 18 h, read-out: DIZ
[13] = system: Penicillium chrysogenum; assay: Antifungal activity against Penicillium chrysogenum MTCC 161 at 200 ug/ml after 18 hr by cup-plate method; conditions: MTCC 161, 18 h, read-out: DIZ
[14] = system: Penicillium chrysogenum; assay: Antifungal activity against Penicillium chrysogenum MTCC 161 at 100 ug/ml after 18 hr by cup-plate method; conditions: MTCC 161, 18 h, read-out: DIZ
[15] = system: Aspergillus niger; assay: Antifungal activity against Aspergillus niger MTCC 2546 at 1000 ug/ml after 18 hr by cup-plate method; conditions: MTCC 2546, 18 h, read-out: DIZ
[16] = system: Aspergillus niger; assay: Antifungal activity against Aspergillus niger MTCC 2546 at 1500 ug/ml after 18 hr by cup-plate method; conditions: MTCC 2546, 18 h, read-out: DIZ
[17] = system: Aspergillus niger; assay: Antifungal activity against Aspergillus niger MTCC 2546 at 500 ug/ml after 18 hr by cup-plate method; conditions: MTCC 2546, 18 h, read-out: DIZ
[18] = system: Aspergillus niger; assay: Antifungal activity against Aspergillus niger MTCC 2546 at 100 ug/ml after 18 hr by cup-plate method; conditions: MTCC 2546, 18 h, read-out: DIZ
[19] = system: Aspergillus niger; assay: Antifungal activity against Aspergillus niger MTCC 2546 at 200 ug/ml after 18 hr by cup-plate method; conditions: MTCC 2546, 18 h, read-out: DIZ
[20] = system: Escherichia coli; assay: Antibacterial activity against Escherichia coli MTCC 1573 at 1500 ug/ml after 18 hr by cup-plate method; conditions: MTCC 1573, 18 h, read-out: DIZ
[21] = system: Escherichia coli; assay: Antibacterial activity against Escherichia coli MTCC 1573 at 500 ug/ml after 18 hr by cup-plate method; conditions: MTCC 1573, 18 h, read-out: DIZ
[22] = system: Escherichia coli; assay: Antibacterial activity against Escherichia coli MTCC 1573 at 1000 ug/ml after 18 hr by cup-plate method; conditions: MTCC 1573, 18 h, read-out: DIZ
[23] = system: Escherichia coli; assay: Antibacterial activity against Escherichia coli MTCC 1573 at 200 ug/ml after 18 hr by cup-plate method; conditions: MTCC 1573, 18 h, read-out: DIZ
[24] = system: Escherichia coli; assay: Antibacterial activity against Escherichia coli MTCC 1573 at 100 ug/ml after 18 hr by cup-plate method; conditions: MTCC 1573, 18 h, read-out: DIZ
[25] = system: Pseudomonas fluorescens; assay: Antibacterial activity against Pseudomonas fluorescens MTCC 2421 at 100 ug/ml after 18 hr by cup-plate method; conditions: MTCC 2421, 18 h, read-out: DIZ
[26] = system: Pseudomonas aeruginosa; assay: Antibacterial activity against Pseudomonas aeruginosa MTCC 424 at 1500 ug/ml after 18 hr by cup-plate method; conditions: MTCC 424, 18 h, read-out: DIZ
[27] = system: Pseudomonas aeruginosa; assay: Antibacterial activity against Pseudomonas aeruginosa MTCC 424 at 1000 ug/ml after 18 hr by cup-plate method; conditions: MTCC 424, 18 h, read-out: DIZ

## Clc1ccc(/N=C/c2cccs2)cc1
[1]
  MIC: 300 µg/mL (≈ 1350 µM)
[2]
  MIC: 400 µg/mL (≈ 1800 µM)
[3]
  MIC: 200 µg/mL (≈ 902 µM)
[4]
  MIC: 300 µg/mL (≈ 1350 µM)
[5]
  MIC: 400 µg/mL (≈ 1800 µM)
[6]
  zone of inhibition at 1000 µg/mL: 18 mm
[7]
  zone of inhibition at 1500 µg/mL: 20 mm
[8]
  zone of inhibition at 500 µg/mL: 16 mm
[9]
  zone of inhibition at 200 µg/mL: 13 mm
[10]
  zone of inhibition at 1500 µg/mL: 19 mm
[11]
  zone of inhibition at 1000 µg/mL: 17 mm
[12]
  zone of inhibition at 500 µg/mL: 16 mm
[13]
  zone of inhibition at 200 µg/mL: 14 mm
[14]
  zone of inhibition at 100 µg/mL: 13 mm
[15]
  zone of inhibition at 1000 µg/mL: 17 mm
[16]
  zone of inhibition at 1500 µg/mL: 18 mm
[17]
  zone of inhibition at 500 µg/mL: 12 mm
[18]
  zone of inhibition at 100 µg/mL: 10 mm
[19]
  zone of inhibition at 200 µg/mL: 11 mm
[20]
  zone of inhibition at 1500 µg/mL: 20 mm
[21]
  zone of inhibition at 500 µg/mL: 16 mm
[22]
  zone of inhibition at 1000 µg/mL: 19 mm
[23]
  zone of inhibition at 200 µg/mL: 15 mm
[24]
  zone of inhibition at 100 µg/mL: 13 mm
[25]
  zone of inhibition at 100 µg/mL: 11 mm
[26]
  zone of inhibition at 1500 µg/mL: 19 mm
[27]
  zone of inhibition at 1000 µg/mL: 17 mm
